Conditions: Capillary rise

CCCC [butane]
Conditions | surface tension liquid-gas [mN/m]
278.15 K | 14.57
283.15 K | 13.96
288.15 K | 13.37
293.15 K | 12.79
298.15 K | 12.17
303.15 K | 11.53
308.15 K | 10.94
313.15 K | 10.35
318.15 K | 9.851
323.15 K | 9.286
328.15 K | 8.705
333.15 K | 8.14
338.15 K | 7.593
343.15 K | 7.043
348.15 K | 6.516
353.15 K | 5.991
358.15 K | 5.479
363.15 K | 4.981
368.15 K | 4.483
373.15 K | 4.003
378.15 K | 3.515
383.15 K | 3.049
388.15 K | 2.578
393.15 K | 2.091
398.15 K | 1.679
403.15 K | 1.29
408.15 K | 0.923
413.15 K | 0.583
417.15 K | 0.341
419.75 K | 0.186
420.35 K | 0.157
420.85 K | 0.129
421.08 K | 0.118
421.48 K | 0.1

COC [dimethyl ether]
Conditions | surface tension liquid-gas [mN/m]
214 K | 24.45
220 K | 23.51
225 K | 22.69
230 K | 21.87
235 K | 21.15
240 K | 20.43
245 K | 19.7
250 K | 18.92
255 K | 18.15
260 K | 17.39
265 K | 16.62
270 K | 15.93
275 K | 15.19
280 K | 14.47
285 K | 13.73
290 K | 13.02
295 K | 12.28
300 K | 11.57
305 K | 10.85
315 K | 9.497
320 K | 8.813
325 K | 8.137
330 K | 7.476
335 K | 6.814
340 K | 6.164
345 K | 5.528
350 K | 4.899
355 K | 4.307
360 K | 3.707
365 K | 3.142
370 K | 2.575
375 K | 2.042
380 K | 1.516
385 K | 1.054
390 K | 0.614
